Measurements published in patent publication US7462362B2, “Antifungal nail coat and method of use” (NexMed Holdings, Inc., priority 2003, dated 2008).
Structures can show the parent of a compound that is named as a salt.

Experiments:
[1] = Release/retention of terbinafine hydrochloride from treated human nail clippings in ethyl alcohol; type: in vitro ADME; settings: FIG. 2
Protocol: The terbinafine-treated nail clippings were then separately recovered from each test solution and rinsed with 10 mL of ethyl alcohol to remove antifungal liquid from the surface cavity. The rinsed nail clippings from each test were then separately immersed in another 5 mL portion of anhydrous ethyl alcohol to assess the rate of terbinafine release from the nail structure, by determining the concentration of terbinafine hydrochloride released as a function of time using the HPLC technique described above.

[2] = In vitro diffusion of terbinafine across a nail membrane (human nail clippings); type: in vitro ADME; settings: applied as a 10% solution in ethanol
[3] = test system: T. mentagrophytes, (ATCC 24953); test: Agar diffusion plate assay, zone of inhibition (Example 9); type: cell-based, Trichophyton mentagrophytes; settings: undiluted composition
Text: For the agar diffusion assay, the standardized inoculum of conidia is applied to the surface of a Potato Dextrose Agar plate and allowed to dry. Wells are then cut into the agar and the test composition is put into the wells and allowed to diffuse and antifungal activity is evidenced by zones of growth inhibition (i.e., area remaining clear, lacking growth) on the surface of the plates measured in millimeters (mm) diameter.
The fungicidal activity of terbinafine hydrochloride against the dermatophytic fungi, T. mentagrophytes, (ATCC 24953), is illustrated in the modified NCCLS broth dilution assay described in Example 8, based on minimum inhibitory concentration (MIC) and minimum fungicidal concentration (MFC) as well as an agar diffusion plate assay measuring the zones of inhibition.
MIC assay was determined using the broth dilution procedure described in Example 8 performed in microtiter wells with RPMI 1604 as the diluent. Serial dilutions of each test composition were made in RPMI diluent, and then 100 μl of undiluted test composition and of each diluted composition was added to a respective microtiter well. Conidial suspension (100 μl) was then added to each well and the plates were incubated at an incubation temperature of about 35° C. for an incubation period of 4 days dermatophytes, and 48 hours for yeasts. […], undiluted test composition was added to wells cut into the agar and allowed to diffuse. The MIC endpoint was the lowest concentration that inhibited 80% of fungal growth as compared to the growth control. The MFC endpoint was the lowest concentration to produce 1-2 colonies. The zone of inhibition size was measured (diameter of area remaining clear, i.e., lacking growth).

[4] = test system: T. mentagrophytes, (ATCC 24953); test: Modified NCCLS M38-A broth microdilution MIC assay; type: cell-based, Trichophyton mentagrophytes
Text: The broth microdilution method was a modification of a NCCLS M38-A standard method for the susceptibility testing of conidium-forming filamentous fungi of the National Committee for Clinical Laboratory Standards (NCCLS). The modified method was developed at the Center for Medical Mycology, University Hospitals of Cleveland, Cleveland, Ohio, based on the method described in Jessup, et al., “Antifungal Susceptibility Testing of Dermatophytes: Establishing a Medium for Inducing Conidial Growth and Evaluation of Susceptibility of Clinical Isolates,” Journal of Clinical Microbiology, 38, 341-344, published by the American Society for Microbiology (2000), the disclosures of which are incorporated herein by reference. Based on a multicenter study of the reproducibility of the modified method for testing dermatophytes, adoption of the modified method as an amendment to the NCCLS M38-A standard has been proposed. […]
Dermatophyte isolates are subcultured onto Potato Dextrose Agar (PDA) and incubated at a temperature of about 30° C. for a period of about 4 to about 5 days or until good conidiation is produced. […] The suspension is allowed to settle for about 5 to about 10 minutes and the conidia is counted using a hemocytometer. […]
MIC assay was determined using the broth dilution procedure described in Example 8 performed in microtiter wells with RPMI 1604 as the diluent. […]

[5] = test system: T. mentagrophytes, (ATCC 24953); test: MFC assay by subculturing the microtiter wells from the MIC test; type: cell-based, Trichophyton mentagrophytes
Protocol: Dermatophyte isolates are subcultured onto Potato Dextrose Agar (PDA) and incubated at a temperature of about 30° C. for a period of about 4 to about 5 days or until good conidiation is produced. T rubrum isolates are subcultured onto cereal (oatmeal) agar instead of PDA in order to induce conidia production. A suspension of conidia in sterile saline is made by gently swabbing the colony surface with a sterile swab. The suspension is allowed to settle for about 5 to about 10 minutes and the conidia is counted using a hemocytometer. Working suspensions of conidia are prepared in 10 ml RPMI 1604 (Difco Laboratories) medium to a final concentration of 1 to 3×10^3 CFU/ml. Yeast controls are subcultured onto PDA and incubated at a temperature of about 35° C. for about 48 hours. Yeast inocula are prepared to a final concentration of 0.5 to 2.5×10^3 CFU/ml. For MIC assay, each drug concentration well and growth control well is inoculated with 100 microliters of cell suspension, and the final volume in each microtiter well is 200 microliters. The dermatophyte plates are incubated at a temperature of about 35° C. for 4 days (yeast controls for 48 hours). […]
MIC assay was determined using the broth dilution procedure described in Example 8 performed in microtiter wells with RPMI 1604 as the diluent. […] The zone of inhibition size was measured (diameter of area remaining clear, i.e., lacking growth).

In the case of CN(C/C=C/C#CC(C)(C)C)Cc1cccc2ccccc12 [terbinafine hydrochloride], the “period for amount of terbinafine hydrochloride retained in the nail to reach equilibrium” value [1] is reported as “about 10 hours”.

For CN(C/C=C/C#CC(C)(C)C)Cc1cccc2ccccc12 [terbinafine, (E)-N-(6,6-dimethyl-2-hepten-4-ynyl)-N-methyl-1-naphthalene methanamine], the “period to reach a concentration above the minimum inhibition concentration (MIC) for fungi across nail membrane” value [2] was “about one”.

In the case of CCCCCCCCCCCCOC(=O)C(C)N(C)C.Cl (stereo not drawn) [9(E), dodecyl-2-(N,N-dimethylamino) isopropionate hydrochloride], the “Zone size (mm)” value [3] is reported as “Zero” and the “efficacy as judged from MIC assays” value ([4]; in words) is reported as “at most some weak efficacy”.

With CN(C/C=C/C#CC(C)(C)C)Cc1cccc2ccccc12 [9(F), terbinafine hydrochloride] the “Zone size (mm)” value ([3]; hydrochloride) was 80 mm.

For CN(C/C=C/C#CC(C)(C)C)Cc1cccc2ccccc12 [9(G), terbinafine hydrochloride], the “Zone size (mm)” value ([3]; hydrochloride) was 18 mm, the MIC ([4]; Trichophyton mentagrophytes, ATCC24953, 96 h, 80% growth inhibition, 35° C., 4 days) was 0.03 µg/mL and the MFC ([5]; Trichophyton mentagrophytes, ATCC24953, lowest concentration to produce 1-2 colonies) was 0.125 µg/mL. For the same compound, the “fungicidal efficacy as judged from MFC assays” value ([5]; in words) was “substantially equivalent”.
